Data: the supplement of paper PMC4862054

Tests used:
Conditions in all cases: incubation time: 72 h
[1] = test system: BT-474; assay: normalised viability (% of control), CellTiter-Blue; higher = more viable cells (about 100 = DMSO control)
Procedure: (§1)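 DSRT, CellTiter-Blue viability, 72 h incubation. Signal is normalised to DMSO and benzethonium chloride controls. Value is the normalised response at dose 3.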

[2] = test system: BT-549; assay: as above
Procedure: as §1

[3] = test system: CAL-120; assay: as above
Procedure: as §1

[4] = test system: CAL-148; assay: as above
Procedure: as §1

[5] = test system: CAL-51; assay: as above
Procedure: as §1

[6] = test system: CAL-85-1; assay: as above
Procedure: as §1

[7] = test system: DU-4475; assay: as above
Procedure: as §1

[8] = test system: HCC1143; assay: as above
Procedure: as §1

[9] = test system: HCC1599; assay: as above
Procedure: as §1

[10] = test system: HCC1937; assay: as above
Procedure: as §1

[11] = test system: HDQ-P1; assay: as above
Procedure: as §1

[12] = test system: Hs578T; assay: as above
Procedure: as §1

[13] = test system: MDA-MB-231; assay: as above
Procedure: as §1

[14] = test system: MDA-MB-436; assay: as above
Procedure: as §1

[15] = test system: MDA-MB-453; assay: as above
Procedure: as §1

[16] = test system: MDA-MB-468; assay: as above
Procedure: as §1

[17] = test system: MFM-223; assay: as above
Procedure: as §1

[18] = test system: SK-BR-3; assay: as above
Procedure: as §1

[19] = test system: CAL-120; assay: drug sensitivity score (DSS), CellTox Green (DSS (AUC-based score)); higher = stronger drug effect (viability inhibition or cytotoxicity); extreme values may be limits of the assay
Outline: (§2)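 The drug sensitivity score reflects the area under a fitted dose-response curve. To obtain it, breast cancer cells in 20 µl suspension were seeded into 384-well plates containing compound at 5 concentrations, 10-fold apart over a compound-specific 10,000-fold range, and incubated 72 h. CellTox Green fluorescence (485/520 nm) was read first and CellTiter-Glo luminescence second, after 10 min at room temperature. Each plate was normalised to 0.1 % DMSO and a positive kill control.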

[20] = test system: MFM-223; assay: as above
Outline: as §2

In the case of `C/C(=C\c1csc(C)n1)[C@@H]1C[C@@H]2O[C@]2(C)CCC[C@H](C)[C@H](O)[C@@H](C)C(=O)C(C)(C)[C@@H](O)CC(=O)N1` [Ixabepilone], the normalised viability ([1]; 10 nM) is reported as 96.6%, the normalised viability ([2]; 10 nM) is reported as 95.2% and the normalised viability ([3]; 10 nM) is reported as 76.4%. It also gave a normalised viability ([4]; 1 nM) of 90.5%, a normalised viability ([5]; 1 nM) of 104% and a normalised viability ([6]; 1 nM) of 90.1%. It also gave a normalised viability ([7]; 1 nM) of 94.3%, a normalised viability ([8]; 10 nM) of 77% and a normalised viability ([9]; 10 nM) of 94.9%. It also gave a normalised viability ([10]; 10 nM) of 95.2%, a normalised viability ([11]; 1 nM) of 82.7% and a normalised viability ([12]; 10 nM) of 81.2%. It also gave a normalised viability ([13]; 10 nM) of 98%, a normalised viability ([14]; 10 nM) of 105% and a normalised viability ([15]; 1 nM) of 89.6%. The normalised viability ([16]; 10 nM) was 91.1%, the normalised viability ([17]; 10 nM) was 73.3% and the normalised viability ([18]; 10 nM) was 80.7%. For the same compound, the drug sensitivity score [19] was 0 and the drug sensitivity score [20] was 0.
Work on `COc1cc(Nc2c(C#N)cnc3cc(OCCCN4CCN(C)CC4)c(OC)cc23)c(Cl)cc1Cl` [Bosutinib] yielded a normalised viability ([1]; 100 nM) of 103%, a normalised viability ([2]; 100 nM) of 113% and a normalised viability ([3]; 100 nM) of 90.4%. The normalised viability ([4]; 10 nM) was 84.6%, the normalised viability ([5]; 10 nM) was 116% and the normalised viability ([6]; 10 nM) was 108%. For the same compound, the normalised viability ([7]; 10 nM) was 109%, the normalised viability ([8]; 100 nM) was 84.3% and the normalised viability ([9]; 100 nM) was 108%. The normalised viability ([10]; 100 nM) was 98.2%, the normalised viability ([11]; 10 nM) was 128% and the normalised viability ([12]; 100 nM) was 106%. The normalised viability ([13]; 100 nM) was 121%, the normalised viability ([14]; 100 nM) was 130% and the normalised viability ([15]; 10 nM) was 104%. For the same compound, the normalised viability ([16]; 100 nM) was 107%, the normalised viability ([17]; 100 nM) was 90.3% and the normalised viability ([18]; 100 nM) was 74.8%. It also gave a drug sensitivity score [19] of 0 and a drug sensitivity score [20] of 0.
`CNC(=O)c1ccccc1Sc1ccc2c(/C=C/c3ccccn3)n[nH]c2c1` [Axitinib] gave a normalised viability ([1]; 100 nM) of 114%, a normalised viability ([2]; 100 nM) of 113% and a normalised viability ([3]; 100 nM) of 96.8%. For the same compound, the normalised viability ([4]; 10 nM) was 98%, the normalised viability ([5]; 10 nM) was 107% and the normalised viability ([6]; 10 nM) was 96%. The normalised viability ([7]; 10 nM) was 113%, the normalised viability ([8]; 100 nM) was 101% and the normalised viability ([9]; 100 nM) was 89.7%. For the same compound, the normalised viability ([10]; 100 nM) was 118%, the normalised viability ([11]; 10 nM) was 100% and the normalised viability ([12]; 100 nM) was 73.2%. The normalised viability ([13]; 100 nM) was 102%, the normalised viability ([14]; 100 nM) was 70% and the normalised viability ([15]; 10 nM) was 104%. It also gave a normalised viability ([16]; 100 nM) of 101%, a normalised viability ([17]; 100 nM) of 82.6% and a normalised viability ([18]; 100 nM) of 58.8%. For the same compound, the drug sensitivity score [19] was 0 and the drug sensitivity score [20] was 0.
For `COc1ccc(S(=O)(=O)Nc2cccnc2Nc2ccc(O)cc2)cc1` [ABT-751], the normalised viability ([1]; 100 nM) was 112%, the normalised viability ([2]; 100 nM) was 89% and the normalised viability ([3]; 100 nM) was 93%. For the same compound, the normalised viability ([4]; 10 nM) was 90.4%, the normalised viability ([5]; 10 nM) was 113% and the normalised viability ([6]; 10 nM) was 88.8%. The normalised viability ([7]; 10 nM) was 109%, the normalised viability ([8]; 100 nM) was 87.2% and the normalised viability ([9]; 100 nM) was 102%. The normalised viability ([10]; 100 nM) was 92.4%, the normalised viability ([11]; 10 nM) was 106% and the normalised viability ([12]; 100 nM) was 88.1%. The normalised viability ([13]; 100 nM) was 91.4%, the normalised viability ([14]; 100 nM) was 108% and the normalised viability ([15]; 10 nM) was 87%. For the same compound, the normalised viability ([16]; 100 nM) was 101%, the normalised viability ([17]; 100 nM) was 91% and the normalised viability ([18]; 100 nM) was 71.6%. For the same compound, the drug sensitivity score [19] was 0.145 and the drug sensitivity score [20] was 4.05.
In the case of `Cc1cc(Nc2nc(N[C@@H](C)c3ncc(F)cn3)ncc2Cl)[nH]n1` [AZD1480], the normalised viability ([1]; 10 nM) is reported as 124%, the normalised viability ([2]; 10 nM) is reported as 94.3% and the normalised viability ([3]; 10 nM) is reported as 96.9%. It also gave a normalised viability ([4]; 1 nM) of 88.9%, a normalised viability ([5]; 1 nM) of 112% and a normalised viability ([6]; 1 nM) of 106%. For the same compound, the normalised viability ([7]; 1 nM) was 98.2%, the normalised viability ([8]; 10 nM) was 87.5% and the normalised viability ([9]; 10 nM) was 109%. For the same compound, the normalised viability ([10]; 10 nM) was 100%, the normalised viability ([11]; 1 nM) was 110% and the normalised viability ([12]; 10 nM) was 90.8%. It also gave a normalised viability ([13]; 10 nM) of 98.1%, a normalised viability ([14]; 10 nM) of 135% and a normalised viability ([15]; 1 nM) of 108%. It also gave a normalised viability ([16]; 10 nM) of 105%, a normalised viability ([17]; 10 nM) of 89.8% and a normalised viability ([18]; 10 nM) of 132%. The drug sensitivity score [19] was 0 and the drug sensitivity score [20] was 1.25.
